11 compounds from patent US7723358B2, “Aroyl-O-piperidine derivatives for the treatment of diabetes-related problems” (Merck Patent GmbH, priority 2004, dated 2010) can be followed below.

Experiment [1] relates to apo B secretion in HepG2 cells. Kind of experiment: Secretion of apo B in the HepG2 human cell line (sandwich-ELISA). The class given is cell-based. As to conditions: 24 hours incubation, culture supernatant, read-out: IC50, concentration that produces a 50% inhibition of apo B secretion in the HepG2 cells. Here is the method: Analysis of the Secretion of apo B in the HepG2 Human Cell Line:
The activity of a compound according to the invention can be evaluated by measuring the inhibition of apo B secretion in HepG2 cells.
The HepG2 cells (ECACC—No. 85011430) are used as model in the study of the in vitro hepatic secretion of lipoproteins (Dixon J. and Ginsberg H., J., Lipid. Res., 1993, 34, 167-179).
The HepG2 cells are cultured in Dulbecco's modified Eagle's medium comprising 10% foetal calf serum (DMEM and FBS—Gibco) in 96-well plates under an atmosphere of 5% carbon dioxide for 24 hours (about 70% confluence).
The test compounds are dissolved at a concentration of 2 or 10 mM in dimethyl sulfoxide (DMSO). Serial dilutions (1:3.16) are made in DMSO and are added (1:200—Robot Multimek Beckman) to the growth medium (200 μL) and then finally incubated for 24 hours in the various wells containing the HepG2 cells.
The 24-hour culture supernatant diluted to 1:5 (phosphate-buffered saline:PBS comprising 1% bovine serum albumin) is tested according to a sandwich-ELISA method specific for human apo B.
The results are expressed in terms of IC50, i.e. the concentration that produces a 50% inhibition of apo B secretion in the HepG2 cells.
For orientation: In an ELISA, binding on a coated surface is turned into a signal by an enzyme label.

Experiment [2] concerns the target T1, microsomal triglyceride transfer protein (MTP) (Mesocricetus auratus, UniProt P55158).
T1 construct: The supernatant comprising the soluble MTP is dialysed against Tris/HCl 150 mM; from tissue; host or cells: golden hamster liver microsomes, deoxycholate-solubilised supernatant, dialysed
T1 sequence (P55158 19-895): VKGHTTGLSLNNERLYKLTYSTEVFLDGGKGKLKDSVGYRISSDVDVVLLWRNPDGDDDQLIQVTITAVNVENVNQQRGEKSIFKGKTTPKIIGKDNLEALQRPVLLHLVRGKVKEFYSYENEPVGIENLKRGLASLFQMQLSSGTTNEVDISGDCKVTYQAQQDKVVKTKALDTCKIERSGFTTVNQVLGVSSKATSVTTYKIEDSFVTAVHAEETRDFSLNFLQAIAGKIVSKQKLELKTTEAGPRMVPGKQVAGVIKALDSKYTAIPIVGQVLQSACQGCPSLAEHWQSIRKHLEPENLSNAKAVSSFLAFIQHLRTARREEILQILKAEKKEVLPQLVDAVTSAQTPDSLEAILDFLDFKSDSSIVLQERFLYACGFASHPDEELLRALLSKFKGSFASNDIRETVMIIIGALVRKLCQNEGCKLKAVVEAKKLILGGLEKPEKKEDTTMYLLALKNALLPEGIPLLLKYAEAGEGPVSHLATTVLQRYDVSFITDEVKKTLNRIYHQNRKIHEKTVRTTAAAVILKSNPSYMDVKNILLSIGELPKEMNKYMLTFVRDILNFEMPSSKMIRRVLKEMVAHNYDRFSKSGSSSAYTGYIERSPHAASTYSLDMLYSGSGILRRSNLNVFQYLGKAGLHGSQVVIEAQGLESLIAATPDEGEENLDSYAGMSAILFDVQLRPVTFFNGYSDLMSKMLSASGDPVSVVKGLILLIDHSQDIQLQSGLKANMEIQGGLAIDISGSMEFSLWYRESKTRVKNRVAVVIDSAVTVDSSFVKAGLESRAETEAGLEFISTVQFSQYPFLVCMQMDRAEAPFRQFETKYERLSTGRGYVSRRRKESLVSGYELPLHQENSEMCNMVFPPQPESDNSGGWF
Kind of experiment: Inhibition of MTP activity: transfer of [3H]-triolein from donor liposomes to biotinylated LDL, SPA. It is filed as biochemical. The conditions noted are these: MTP from golden hamster liver; incubation 18-24 hours at 37° C.; read-out: IC50, concentration that allows a 50% inhibition of MTP. In short, it runs like this: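 Soluble MTP was extracted with deoxycholate from golden hamster liver microsomes. It was incubated with [3H]-triolein/phosphatidylcholine donor liposomes, biotinylated LDL acceptors and compound in DMSO in HEPES/NaCl/BSA buffer, pH 7.4, for 18-24 h at 37° C. Transfer was read with streptavidin SPA beads, and IC50 was taken as 50% inhibition of transfer.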

With `Cc1cccc(C(=O)Nc2cccc(OC3CCN(S(C)(=O)=O)CC3)c2)c1-c1ccc(OC(F)(F)F)cc1` [Example 3, 6-methyl-N-[3-[[1-(methylsulfonyl)-4-piperidinyl]oxy]phenyl]-4′-(trifluoro-methoxy)[1,1′-biphenyl]-2-carboxamide], the IC50 in experiment [1] amounted to 10.6 nM; in experiment [2] it was 49.2 nM.
In the same order, the values of `COC(=O)N1CCC(Oc2cccc(NC(=O)c3cccc(C)c3-c3ccc(OC(F)(F)F)cc3)c2)CC1` [Example 5, methyl 4-[3-[[[6-methyl-4′-(trifluoro-methoxy)[1,1′-biphenyl]-2-yl]carbonyl]-amino]phenoxy]-1-piperidinecarboxylate] are 0.8 nM and 45.1 nM.
Regarding `CCOC(=O)N1CCC(Oc2cccc(NC(=O)c3cccc(C)c3-c3ccc(OC(F)(F)F)cc3)c2)CC1` [Example 6, ethyl 4-[3-[[[6-methyl-4′-(trifluoromethoxy)-[1,1′-biphenyl]-2-yl]carbonyl]amino]-phenoxy]-1-piperidinecarboxylate], the IC50 in experiment [1] came out at 4 nM; in experiment [2], 47.6 nM.
The corresponding values for `Cc1cccc(C(=O)Nc2cccc(OC3CCN(C(=O)OCc4ccccc4)CC3)c2)c1-c1ccc(OC(F)(F)F)cc1` [Example 7, phenylmethyl 4-[3-[[[6-methyl-4′-(trifluoro-methoxy)[1,1′-biphenyl]-2-yl]carbonyl]-amino]phenoxy]-1-piperidinecarboxylate] are 17 nM and 45.2 nM.
Take `Cc1ccc(C(=O)N2CCC(Oc3cccc(NC(=O)c4ccccc4-c4ccc(OC(F)(F)F)cc4)c3)CC2)cc1` [Example 130, N-[3-[[1-(4-methylbenzoyl)-4-piperidinyl]-oxy]phenyl]-4′-(trifiuoromethoxy)[1,1′-biphenyl]-2-carboxamide]: the IC50 in experiment [2] came out at 219 nM.
Still for that read-out and setting: in the case of `COC(=O)CCC(=O)N1CCC(Oc2cccc(NC(=O)c3ccccc3-c3ccc(OC(F)(F)F)cc3)c2)CC1` [Example 133, methyl γ-oxo-4-[3-[[[4′-(trifluoromethoxy)-[1,1′-biphenyl]-2-yl]carbonyl]amino]-phenoxy]-1-piperidinebutanoate] it was 296 nM.
Turning to `C/C=C/C(=O)N1CCC(Oc2cccc(NC(=O)c3ccccc3-c3ccc(OC(F)(F)F)cc3)c2)CC1` [Example 137, N-[3-[[1-[(2E)-1-oxo-2-butenyl]-4-piperi-dinyl]oxy]phenyl]-4′-(trifluoromethoxy)-[1,1′-biphenyl]-2-carboxamide], the IC50 in experiment [2] is 209 nM.
Still for that read-out and setting: the value for `COc1ccc(C(=O)N2CCC(Oc3cccc(NC(=O)c4ccccc4-c4ccc(OC(F)(F)F)cc4)c3)CC2)cc1` [Example 138, N-[3-[[1-(4-methoxybenzoyl)-4-piperidin-yl]oxy]phenyl]-4′-(trifluoromethoxy)[1,1′-biphenyl]-2-carboxamide] was 221 nM; that for `CCOC(=O)CCC(=O)N1CCC(Oc2cccc(NC(=O)c3ccccc3-c3ccc(OC(F)(F)F)cc3)c2)CC1` [Example 139, ethyl γ-oxo-4-[3-[[[4′-(trifluoromethoxy)-[1,1′-biphenyl]-2-yl]carbonyl]amino]-phenoxy]-1-piperidinebutanoate] was 309 nM.
Still for that read-out and setting: in the case of `CC(C)(C)C(=O)N1CCC(Oc2cccc(NC(=O)c3ccccc3-c3ccc(OC(F)(F)F)cc3)c2)CC1` [Example 140, N-[3-[[1-(2,2-dimethyl-1-oxopropyl)-4-piperidinyl]oxy]phenyl]-4′-(trifluorometh-oxy)[1,1′-biphenyl]-2-carboxamide] it was 176 nM; in that of `Cc1cccc(C(=O)Nc2cccc(OC3CCN(C(=O)c4ccccc4)CC3)c2)c1-c1ccc(OC(F)(F)F)cc1` [Example 143, N-[3-[(1-benzoyl-4-piperidinyl)oxy]phenyl]-6-methyl-4′-(trifluoromethoxy)[1,1′-biphenyl]-2-carboxamide], 118 nM.
